The record followed here is patent US20250026724A1, “(1,4,5-TRISUBSTITUTED 1H-PYRAZOL-3-YL)OXY-2-ALKYLTHIOALKYL ACIDS AND -ALKYL ACID DERIVATIVES, SALTS THEREOF AND USE THEREOF AS ACTIVE HERBICIDAL INGREDIENTS” (BAYER AKTIENGESELLSCHAFT, priority 2021, published 2025).

Holding throughout (test): Post-emergence herbicidal action, greenhouse pot trial
Assay type in all cases: in vivo

The test system of assay [1] is Digitaria sanguinalis (DIGSA). To be noted: visual rating after about 3 weeks; for pest or weed control at 320 g/ha: Digitaria sanguinalis, 504 h, read-out: Post-emergence effect at 320 g/ha against DIGSA in %. Here is the method:
(§1) Seeds of monocotyledonous and dicotyledonous weeds and crop plants are placed in sandy loam in plastic or organic planting pots, covered with soil and cultivated in a greenhouse under controlled growth conditions. 2 to 3 weeks after sowing, the trial plants are treated at the one-leaf stage. The compounds of the invention, formulated in the form of wettable powders (WP) or as emulsion concentrates (EC), are then sprayed onto the green parts of the plants as aqueous suspension or emulsion with addition of 0.5% additive at a water application rate equivalent to 600 l/ha. After about 3 weeks of keeping the trial plants in the greenhouse under optimum growth conditions, the effect of the preparations is rated visually in comparison to untreated controls. For example, 100% activity=the plants have died, 0% activity=like control plants.
(§2) Tables B1 to B14 below show the effects of selected compounds of the general formula (I) according to Table 1 on various harmful plants and at an application rate corresponding to 320 g/ha or lower, which were obtained by the trial procedure specified above. The appendices “a”, “b” and “c” give differentiation by dosage used with otherwise the same harmful plants tested.
(§3) As shown by results from Tables B1 to B19, inventive compounds of the general formula (I) in the case of post-emergence treatment have good herbicidal efficacy against harmful plants, for example Abutilon theophrasti (ABUTH), Alopecurus myosuroides (ALOMY), Amaranthus retroflexus (AMARE), Avena fatua (AVEFA), Digitaria sanguinalis (DIGSA), Echinochloa crus-galli (ECHCG), Bassia scoparia (KCHSC), Lolium rigidum (LOLRI), Matricaria inodora (MATIN), Pharbitis purpurea (PHBPU), Polygonum convolvulus (POLCO), Setaria viridis (SETVI), Veronica persica (VERPE) and Viola tricolor (VIOTR) at an application rate of 320 g of active substance or less per hectare, and good crop plant compatibility in the case of organisms such as Oryza sativa (ORYSA), Zea mays (ZEAMX), Brassica napus (BRSNW), Glycine max (GLXMA) and Triticum aestivum (TRZAS) at an application rate of 320 g or less per hectare.

Another assay concerns Setaria viridis (SETVI). The conditions noted are these: 320 g/ha, visual rating after about 3 weeks; for pest or weed control at 320 g/ha: Setaria viridis, 504 h, read-out: Post-emergence effect at 320 g/ha against SETVI in %. How it is done: as §1, §2, §3
Assay [2] has as its system Abutilon theophrasti (ABUTH). The conditions noted are these: visual rating after about 3 weeks; for pest or weed control at 320 g/ha: read-out: Post-emergence effect at 320 g/ha against ABUTH in %. Here is the method:
as §1, §2, §3

For assay [3], the system named is Polygonum convolvulus (POLCO). The conditions noted are these: visual rating after about 3 weeks; for pest or weed control at 320 g/ha: read-out: Post-emergence effect at 320 g/ha against POLCO in %. How it is done: as §1, §2, §3
The test system of assay [4] is Pharbitis purpurea (PHBPU). The conditions noted are these: visual rating after about 3 weeks; for pest or weed control at 320 g/ha / pest or weed control at 80 g/ha: Ipomoea purpurea, 504 h; for pest or weed control at 320 g/ha: read-out: Post-emergence effect at 320 g/ha against PHBPU in %; for pest or weed control at 80 g/ha: read-out: Post-emergence effect at 80 g/ha against PHBPU in %. Here is the method: as §1, §2, §3

Assay [5] concerns Amaranthus retroflexus (AMARE). The conditions noted are these: visual rating after about 3 weeks; for pest or weed control at 320 g/ha / pest or weed control at 80 g/ha: Amaranthus retroflexus, 504 h; for pest or weed control at 320 g/ha: read-out: Post-emergence effect at 320 g/ha against AMARE in %; for pest or weed control at 80 g/ha: read-out: Post-emergence effect at 80 g/ha against AMARE in %. Here is the method: as §1, §2, §3

In assay [6] the test system is Echinochloa crus-galli (ECHCG). The conditions noted are these: visual rating after about 3 weeks; for pest or weed control at 320 g/ha: read-out: Post-emergence effect at 320 g/ha against ECHCG in %. Here is the method:
as §1, §2, §3

The next assay concerns Viola tricolor (VIOTR). Here is the method:
as §1, §2, §3

In a further assay the test system is Bassia scoparia (KCHSC). To be noted: Bassia scoparia, 504 h, read-out: Post-emergence effect against KCHSC. How it is done: as §1, §2, §3
The subject of assay [7] is Matricaria inodora (MATIN). To be noted: visual rating after about 3 weeks; for pest or weed control at 80 g/ha / pest or weed control at 320 g/ha: Tripleurospermum inodorum, 504 h; for pest or weed control at 80 g/ha: read-out: Post-emergence effect at 80 g/ha against MATIN in %; for pest or weed control at 320 g/ha: read-out: Post-emergence effect at 320 g/ha against MATIN in %. How it is done:
as §1, §2, §3

The next assay deals with Avena fatua (AVEFA). The conditions noted are these: Avena fatua, 504 h, 320 g/ha, visual rating after about 3 weeks, read-out: Post-emergence effect at 320 g/ha against AVEFA in %. How it is done: as §1, §2, §3
The mark [8] stands for this setting: Abutilon theophrasti, 504 h, 320 g/ha.
[9] abbreviates: Fallopia convolvulus, 504 h, 320 g/ha.
Where [10] appears, read: Echinochloa crus-galli, 504 h, 320 g/ha.
Setting [11] is: Viola tricolor, 504 h, 320 g/ha, read-out: Post-emergence effect against VIOTR.
Where [12] appears, read: Viola tricolor, 504 h, 80 g/ha, read-out: Post-emergence effect against VIOTR.

In the case of `CCOC(=O)C(Oc1nn(-c2ncccc2F)c(-c2ccc(F)cc2F)c1Br)SC` (stereo not shown) [Example I-14], the pest or weed control at 320 g/ha in [1] (320 g/ha) was 80%; in the assay with Setaria viridis (SETVI), 80%; in assay [2] (setting [8]) it was 80%; in [3] (setting [9]), 90%; in [4] (320 g/ha) it was 80%; in assay [5] (320 g/ha), 80%.

Regarding `CCOC(=O)C(Oc1nn(-c2ncccc2F)c(-c2ccc(F)nc2)c1Br)SC` (single isomer, unassigned) [Example I-29], the “Post-emergence effect at 320 g/ha against DIGSA in %” value in [1] (320 g/ha) was determined as 90%. In assay [6] (320 g/ha), the “Post-emergence effect at 320 g/ha against ECHCG in %” value came to 90%. Further, the “Post-emergence effect at 320 g/ha against SETVI in %” value in the assay on Setaria viridis (SETVI) came to 90%. The results for the “Post-emergence effect against VIOTR” value with Viola tricolor (VIOTR) (80 g/ha) and with Viola tricolor (VIOTR) (320 g/ha) were 80% and 90%, respectively. The “Post-emergence effect at 320 g/ha against ABUTH in %” value in assay [2] (320 g/ha) came to 90%. The “Post-emergence effect at 80 g/ha against POLCO in %” value in [3] (80 g/ha) turned out to be 90%. Also, in [3] (320 g/ha), the “Post-emergence effect at 320 g/ha against POLCO in %” value was found to be 90%. Besides, the pest or weed control at 80 g/ha with Bassia scoparia (KCHSC) (80 g/ha) amounted to 80%. In addition, in the assay on Bassia scoparia (KCHSC), the pest or weed control at 320 g/ha turned out to be 90%. Also, in assay [4] (320 g/ha), the “Post-emergence effect at 320 g/ha against PHBPU in %” value is given as 90%. Besides, the “Post-emergence effect at 320 g/ha against MATIN in %” value in [7] (320 g/ha) was 80%. In assay [5] (320 g/ha), the “Post-emergence effect at 320 g/ha against AMARE in %” value stood at 80%.

Take `CCOC(=O)C(Oc1nn(-c2ccccc2F)c(-c2ccc(F)nc2)c1I)SC` (stereo not shown) [Example I-68]: the pest or weed control at 320 g/ha in assay [1] (320 g/ha) is 80%; in assay [6] (setting [10]) it was 90%; with Setaria viridis (SETVI), 90%; with Viola tricolor (VIOTR) (setting [11]), 90%; in assay [3] (setting [9]) it was 80%; in assay [5] (320 g/ha) it was 90%.

Regarding `COC(=O)C(Oc1nn(-c2cc(F)ccc2F)c(-c2cncc(F)c2)c1Br)SC` (stereo not shown) [Example I-07], the pest or weed control at 320 g/ha (in [1] (320 g/ha); in assay [6] (setting [10]); in the assay on Setaria viridis (SETVI); in the assay with Viola tricolor (VIOTR) (setting [11]); in assay [7] (320 g/ha)) was 90% each time. For the same compound, the pest or weed control at 20 g/ha with Viola tricolor (VIOTR) (Viola tricolor, 504 h, 20 g/ha, read-out: Post-emergence effect against VIOTR) came out at 80%. The figures for the pest or weed control at 80 g/ha (in the assay on Viola tricolor (VIOTR) (setting [12]); in [7]) were 90% and 80%, respectively.

For the compound `CCOC(=O)C(Oc1nn(-c2cc(F)ccc2F)c(-c2cncc(F)c2)c1I)SC` (stereo not shown) [Example I-02], the pest or weed control at 320 g/ha in assay [6] (setting [10]) came to 90%; in the assay on Setaria viridis (SETVI) it was 80%; in the assay on Viola tricolor (VIOTR) (setting [11]), 90%; in [7] (320 g/ha) it was 90%. Further, the pest or weed control at 80 g/ha (in the assay with Viola tricolor (VIOTR) (setting [12]); in assay [7]) was 80% in each case.

With `CCOC(=O)C(Oc1nn(-c2ncccc2F)c(-c2ccc(F)nc2)c1C(F)(F)F)SC` (stereo not shown) [Example I-09], the pest or weed control at 320 g/ha in assay [6] (setting [10]) was 80%; with Viola tricolor (VIOTR) (setting [11]) it was 90%; in [2] (setting [8]) it was 80%; in assay [3] (setting [9]) it was 90%; in assay [4] (320 g/ha), 90%; in [7] (320 g/ha), 80%.

With `CSC(Oc1nn(-c2ncccc2F)c(-c2ccc(F)nc2)c1Br)C(=O)O` (stereo not shown) [Example I-34], in assay [1] (80 g/ha), the “Post-emergence effect at 80 g/ha against DIGSA in %” value was 80%. Also, the pest or weed control at 320 g/ha (in assay [1] (320 g/ha); in assay [6] (setting [10]); with Setaria viridis (SETVI); with Viola tricolor (VIOTR) (setting [11]); in assay [2] (setting [8]); in [3] (setting [9])) was 90% throughout. The pest or weed control at 320 g/ha in the assay with Bassia scoparia (KCHSC) is 80%; in assay [4] (320 g/ha) it was 90%; in [7] (320 g/ha) it was 80%; in assay [5] (320 g/ha), 80%. Also, the pest or weed control at 80 g/ha in assay [6] (Echinochloa crus-galli, 504 h, 80 g/ha, read-out: Post-emergence effect at 80 g/ha against ECHCG in %) is 80%; in [4], 80%.

As to `CSC(Oc1nn(-c2ncccc2F)c(-c2ccc(F)nc2)c1C(F)(F)F)C(=O)O` (stereo not shown) [Example I-38], the pest or weed control at 320 g/ha in the assay with Viola tricolor (VIOTR) (setting [11]) was 90%; in [2] (setting [8]), 80%; in [3] (setting [9]) it was 90%; in assay [7] (320 g/ha), 80%.

On to `CCOC(=O)C(Oc1nn(-c2ncccc2F)c(-c2ccc(F)nc2)c1I)SC` (stereo not shown) [Example I-18], for which the pest or weed control at 320 g/ha in assay [1] (320 g/ha) came out at 80%; in assay [6] (setting [10]), 100%; in the assay on Setaria viridis (SETVI) it was 90%; in the assay with Viola tricolor (VIOTR) (setting [11]), 90%; in [2] (setting [8]), 90%; in assay [3] (setting [9]), 90%. Further, the pest or weed control at 320 g/ha in assay [4] (320 g/ha) and in assay [5] (320 g/ha) was 90% throughout. The pest or weed control at 80 g/ha in the assay on Viola tricolor (VIOTR) (setting [12]) was found to be 90%; in [3] (Fallopia convolvulus, 504 h, 80 g/ha, read-out: Post-emergence effect at 80 g/ha against POLCO in %), 90%; in [4] it was 80%; in assay [5] it was 80%.

On to `CSC(Oc1nn(-c2ccccc2F)c(-c2ccc(F)nc2)c1I)C(=O)O` (stereo not shown) [Example I-21], for which the pest or weed control at 320 g/ha was 90% in assay [6] (setting [10]); 90% with Setaria viridis (SETVI); 90% in the assay on Viola tricolor (VIOTR) (setting [11]); 80% in [2] (setting [8]); 80% in assay [3] (setting [9]); 90% in assay [5] (320 g/ha). The pest or weed control at 80 g/ha in the assay with Viola tricolor (VIOTR) (setting [12]) worked out at 80%.

Take `CSC(Oc1nn(-c2ncccc2F)c(-c2ccc(F)nc2)c1C1CC1)C(=O)O` (stereo not shown) [Example I-33]: the pest or weed control at 320 g/ha (with Avena fatua (AVEFA); in [6] (setting [10]); in the assay with Viola tricolor (VIOTR) (setting [11])) was 80% throughout.

Regarding `CCOC(=O)C(Oc1nn(-c2ncccc2F)c(-c2ccc(F)nc2)c1C1CC1)SC` (stereo not shown) [Example I-20], the pest or weed control at 320 g/ha in assay [6] (setting [10]) turned out to be 90%; with Viola tricolor (VIOTR) (setting [11]) it was 90%; in assay [2] (setting [8]), 90%; in [5] (320 g/ha) it was 80%. Further, the pest or weed control at 80 g/ha came out at 80% in the assay on Viola tricolor (VIOTR) (setting [12]); 80% in assay [2] (Abutilon theophrasti, 504 h, 80 g/ha, read-out: Post-emergence effect at 80 g/ha against ABUTH in %); 80% in assay [5].
